What was measured:
[1] = target: T1, bradykinin 1 receptor (B1R) of the rat (Rattus norvegicus, UniProt P97583); assay: Functional investigation on the rat bradykinin 1 receptor (B1R), Ca2+ FLIPR assay in CHO K1 rB1R cells; type: cell-based; conditions: CHO-K1, B1R antagonism rat; test substance 10 μM; Ca2+ FLIPR, CHO K1 rB1R cells; read-out: B1R Ant. r [10 μM] % Inhibition
T1 construct: expressed in transfected cells; host or cells: CHO K1 cells
T1 sequence (P97583 1-337): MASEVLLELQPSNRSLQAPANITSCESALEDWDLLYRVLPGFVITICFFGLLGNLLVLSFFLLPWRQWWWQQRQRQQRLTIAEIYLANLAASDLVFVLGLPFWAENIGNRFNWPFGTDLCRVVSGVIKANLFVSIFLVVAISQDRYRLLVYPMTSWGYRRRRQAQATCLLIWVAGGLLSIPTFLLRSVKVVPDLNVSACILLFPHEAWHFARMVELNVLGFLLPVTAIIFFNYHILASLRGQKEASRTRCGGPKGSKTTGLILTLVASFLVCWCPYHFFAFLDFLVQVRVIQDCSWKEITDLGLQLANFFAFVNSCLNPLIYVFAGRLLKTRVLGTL
Method in brief: (§1)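 Fluo-4 Ca2+ readout, peak fluorescence. Stable CHO K1 transfectants; compound pre-incubated 10-20 min, then EC80 agonist—Lys-Des-Arg9-BK for hB1R, Des-Arg9-BK for rB1R. % inhibition vs maximal inhibition; IC50 from multiple concentrations, duplicate/triplicate, ≥2 independent runs.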

[2] = target: T2, human bradykinin 1 receptor (B1R) (Homo sapiens, UniProt P46663); assay: Functional investigation on the human bradykinin 1 receptor (B1R), Ca2+ FLIPR assay in CHO K1 hB1R cells; type: cell-based; conditions: CHO-K1, B1R antagonism human; test substance 10 μM; Ca2+ FLIPR, CHO K1 hB1R cells; read-out: B1R Ant. h [10 μM] % Inhibition
T2 construct: expressed in transfected cells; host or cells: CHO K1 cells
T2 sequence (P46663 1-353): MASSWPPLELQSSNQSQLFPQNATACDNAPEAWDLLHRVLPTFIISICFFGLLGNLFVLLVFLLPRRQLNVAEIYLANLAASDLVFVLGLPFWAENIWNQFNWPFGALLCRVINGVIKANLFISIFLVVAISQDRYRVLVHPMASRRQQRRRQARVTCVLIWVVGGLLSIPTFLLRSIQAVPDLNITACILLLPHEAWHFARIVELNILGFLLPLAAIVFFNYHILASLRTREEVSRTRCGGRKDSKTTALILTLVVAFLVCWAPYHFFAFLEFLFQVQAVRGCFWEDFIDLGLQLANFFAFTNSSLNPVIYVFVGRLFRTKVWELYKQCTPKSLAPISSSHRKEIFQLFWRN
Method in brief: as §1

In the case of `Cc1cc(C)c(S(=O)(=O)N2CCC(OCC(=O)NC3CCC(C(c4cccs4)N(C)C)CC3)C2)c(C)c1` (centres unmarked) [Example 12, N-(4-((dimethylamino)(thiophen-2-yl)methyl)cyclohexyl)-2-(1-(mesitylsulfonyl)pyrrolidin-3-yloxy)acetamide], the inhibition at 10 µM [1] is reported as 30% and the inhibition at 10 µM [2] is reported as 41%.

Compound `CCN(CCOCC(=O)NC1CCC(C(c2cccc(F)c2)N(C)C)CC1)S(=O)(=O)c1c(C)cc(OC)c(C)c1C` (centres unmarked) [Example 176, N-(4-((dimethylamino)(3-fluorophenyl)methyl)cyclohexyl)-2-(2-(N-ethyl-4-methoxy-2,3,6-trimethylphenylsulfonamido)ethoxy)acetamide] has an inhibition at 10 µM [1] of 47% and an inhibition at 10 µM [2] of 64%.

Compound `COc1ccc(S(=O)(=O)N2CCCCC2COCC(=O)NCCC2CCC(C(c3cccc(F)c3)N(C)C)CC2)cc1` (centres unmarked) [Example 180, N-(2-(4-((dimethylamino)(3-fluorophenyl)methyl)cyclohexyl)ethyl)-2-((1-(4-methoxyphenylsulfonyl)piperidin-2-yl)methoxy)acetamide] has an inhibition at 10 µM [1] of 68% and an inhibition at 10 µM [2] of 62%.

In the case of `Cc1ccc(S(=O)(=O)N(C)CCOCC(=O)NCC2CCC(C(c3ccccc3)N(C)C)CC2)cc1` (centres unmarked) [Example 157, N-((4-((dimethylamino) (phenyl)methyl)cyclohexyl)methyl)-2-(2-(N,4-dimethylphenylsulfonamido)ethoxy)acetamide], the inhibition at 10 µM [1] is reported as -1% and the inhibition at 10 µM [2] is reported as 5%.

Work on `COc1cc(C)c(S(=O)(=O)N2CCN(CCOCC(=O)NCCC3CCC(C(c4cccc(F)c4)N(C)C)CC3)CC2)c(C)c1C` (centres unmarked) [Example 200, N-(2-(4-((dimethylamino)(3-fluorophenyl)methyl)cyclohexyl)ethyl)-2-(2-(4-(4-methoxy-2,3,6-trimethylphenylsulfonyl)piperazin-1-yl)ethoxy)acetamide] yielded an inhibition at 10 µM [1] of -3% and an inhibition at 10 µM [2] of 73%.

Work on `Cc1cc(C)c(S(=O)(=O)N2CCC(OCC(=O)NCC3CCC(C(c4cccc(F)c4)N(C)C)CC3)C2)c(C)c1` (centres unmarked) [Example 141, N-((4-((dimethylamino)(3-fluorophenyl)methyl)cyclohexyl)methyl)-2-(1-(mesitylsulfonyl)pyrrolidin-3-yloxy)acetamide] yielded an inhibition at 10 µM [1] of 26% and an inhibition at 10 µM [2] of 54%.

`CCN(CCOCC(=O)NCC1CCC(C(c2cccs2)N(C)C)CC1)S(=O)(=O)c1c(C)cc(OC)c(C)c1C` (centres unmarked) [Example 16, N-((4-((dimethylamino)(thiophen-2-yl)methyl)cyclohexyl)methyl)-2-(2-(N-ethyl-4-methoxy-2,3,6-trimethylphenylsulfonamido)ethoxy)acetamide] showed an inhibition at 10 µM [1] of 59% and an inhibition at 10 µM [2] of 86%.

In the case of `COc1ccc(S(=O)(=O)N2CCC(OCC(=O)NCC3CCC(C(c4cccs4)N(C)C)CC3)C2)cc1OC` (centres unmarked) [Example 23, 2-(1-(3,4-dimethoxyphenylsulfonyl)pyrrolidin-3-yloxy)-N-((4-((dimethylamino)(thiophen-2-yl)methyl)cyclohexyl)methyl)acetamide], the inhibition at 10 µM [1] is reported as 7% and the inhibition at 10 µM [2] is reported as -25%.

`CN(C)C(c1cccs1)C1CCC(CCNC(=O)COC2CCN(S(=O)(=O)c3ccc(Cl)cc3Cl)C2)CC1` (centres unmarked) [Example 21, 2-(1-(2,4-dichlorophenylsulfonyl)pyrrolidin-3-yloxy)-N-(2-(4-((dimethylamino)(thiophen-2-yl)methyl)cyclohexyl)ethyl)acetamide] showed an inhibition at 10 µM [1] of 50% and an inhibition at 10 µM [2] of 88%.

For `CN(C)C(c1ccccc1)C1CCC(CNC(=O)COCC2CCCN2S(=O)(=O)c2ccc(Cl)c(Cl)c2)CC1` (centres unmarked) [Example 18, 2-((1-(3,4-dichlorophenylsulfonyl)pyrrolidin-2-yl)methoxy)-N-((4-((dimethylamino)(phenyl)methyl)cyclohexyl)methyl)acetamide], the inhibition at 10 µM [1] was 11% and the inhibition at 10 µM [2] was 62%.

For `COc1cc(C)c(S(=O)(=O)N(CCOCC(=O)NC2CCC(C(c3ccccc3)N(C)C)CC2)Cc2ccccc2)c(C)c1C` (centres unmarked) [Example 193, 2-(2-(N-benzyl-4-methoxy-2,3,6-trimethylphenylsulfonamido)ethoxy)-N-(4-((dimethylamino) (phenyl)methyl)cyclohexyl)acetamide], the inhibition at 10 µM [1] was 6% and the inhibition at 10 µM [2] was 97%.

For `CN(C)C(c1cccc(F)c1)C1CCC(NC(=O)COCCN(Cc2ccccc2)S(=O)(=O)c2ccccc2)CC1` (centres unmarked) [Example 175, 2-(2-(N-benzylphenylsulfonamido)ethoxy)-N-(4-((dimethylamino)(3-fluorophenyl)methyl)cyclohexyl)acetamide], the inhibition at 10 µM [1] was 5% and the inhibition at 10 µM [2] was -6%.

With `COc1cc(C)c(S(=O)(=O)N2CCC(CCOCC(=O)NCC3CCC(C(c4ccccc4)N(C)C)CC3)CC2)c(C)c1C` (centres unmarked) [Example 146, N-((4-((dimethylamino)(phenyl)methyl)cyclohexyl)methyl)-2-(2-(1-(4-methoxy-2,3,6-trimethylphenylsulfonyl)piperidin-4-yl)ethoxy)acetamide] the inhibition at 10 µM [1] was 26% and the inhibition at 10 µM [2] was 23%.

In the case of `COc1ccc(S(=O)(=O)N2CCCCC2COCC(=O)NCC2CCC(C(c3cccc(F)c3)N(C)C)CC2)c(OC)c1` (centres unmarked) [Example 151, 2-((1-(2,4-dimethoxyphenylsulfonyl)piperidin-2-yl)methoxy)-N-((4-((dimethylamino)(3-fluorophenyl)methyl)cyclohexyl)methyl)acetamide], the inhibition at 10 µM [1] is reported as 23% and the inhibition at 10 µM [2] is reported as 24%.

Work on `CN(C)C(c1cccs1)C1CCC(NC(=O)COCCN(Cc2ccccc2)S(=O)(=O)c2ccccc2)CC1` (centres unmarked) [Example 161, 2-(2-(N-benzylphenylsulfonamido)ethoxy)-N-(4-((dimethylamino)(thiophen-2-yl)methyl)cyclohexyl)acetamide] yielded an inhibition at 10 µM [1] of 3% and an inhibition at 10 µM [2] of 1%.

In the case of `CN(C)C(c1cccs1)C1CCC(CCNC(=O)COCCN(C)S(=O)(=O)c2cccc(C(F)(F)F)c2)CC1` (centres unmarked) [Example 32, N-(2-(4-((dimethylamino)(thiophen-2-yl)methyl)cyclohexyl)ethyl)-2-(2-(N-methyl-3-(trifluoromethyl)phenylsulfonamido)ethoxy)acetamide], the inhibition at 10 µM [1] is reported as 14% and the inhibition at 10 µM [2] is reported as 32%.

Compound `COc1ccc(S(=O)(=O)N2CCCCC2COCC(=O)NCCC2CCC(C(c3cccc(F)c3)N(C)C)CC2)cc1OC` (centres unmarked) [Example 191, 2-((1-(3,4-dimethoxyphenylsulfonyl)piperidin-2-yl)methoxy)-N-(2-(4-((dimethylamino)(3-fluorophenyl)methyl)cyclohexyl)ethyl)acetamide] has an inhibition at 10 µM [1] of -14% and an inhibition at 10 µM [2] of -16%.

`CN(C)C(c1cccs1)C1CCC(NC(=O)COC2CCN(S(=O)(=O)c3cccc(C(F)(F)F)c3)C2)CC1` (centres unmarked) [Example 11, N-(4-((dimethylamino)(thiophen-2-yl)methyl)cyclohexyl)-2-(1-(3-(trifluoromethyl)phenylsulfonyl)pyrrolidin-3-yloxy)acetamide] gave an inhibition at 10 µM [1] of 36% and an inhibition at 10 µM [2] of -16%.

Compound `CN(C)C(c1cccc(F)c1)C1CCC(NC(=O)COCCN(C)S(=O)(=O)c2c(Cl)cccc2Cl)CC1` (centres unmarked) [Example 171, 2-(2-(2,6-dichloro-N-methylphenylsulfonamido)ethoxy)-N-(4-((dimethylamino)(3-fluorophenyl)methyl)cyclohexyl)acetamide] has an inhibition at 10 µM [1] of 43% and an inhibition at 10 µM [2] of 68%.

Work on `COc1cc(C)c(S(=O)(=O)N2CCC(OCC(=O)NCC3CCC(C(c4ccccc4)N(C)C)CC3)C2)c(C)c1` (centres unmarked) [Example 173, N-((4-((dimethylamino)(phenyl)methyl)cyclohexyl)methyl)-2-(1-(4-methoxy-2,6-dimethylphenylsulfonyl)pyrrolidin-3-yloxy)acetamide] yielded an inhibition at 10 µM [1] of 104% and an inhibition at 10 µM [2] of 94%.

`CN(C)C(c1ccccc1)C1CCC(CNC(=O)COCC2CCCCN2S(=O)(=O)c2ccc(Cl)c(Cl)c2)CC1` (centres unmarked) [Example 17, 2-((1-(3,4-dichlorophenylsulfonyl)piperidin-2-yl)methoxy)-N-((4-((dimethylamino)(phenyl)methyl)cyclohexyl)methyl)acetamide] gave an inhibition at 10 µM [1] of 22% and an inhibition at 10 µM [2] of 81%.

Work on `CN(C)C(c1cccs1)C1CCC(CCNC(=O)COCCN(C)S(=O)(=O)c2ccc(Cl)cc2Cl)CC1` (centres unmarked) [Example 9, 2-(2-(2,4-dichloro-N-methylphenylsulfonamido)ethoxy)-N-(2-(4-((dimethylamino) (thiophen-2-yl)methyl)cyclohexyl)ethyl)acetamide] yielded an inhibition at 10 µM [1] of 43% and an inhibition at 10 µM [2] of 97%.

Source: patent publication US8106055B2, “Substituted amide compounds” (Gruenenthal GmbH, priority 2007, dated 2012)
